These results are taken from article PMC7785020, “A unique hormonal recognition feature of the human glucagon-like peptide-2 receptor” (Cell Research, 2020).

One test has as its target T1, GLP-2R R242^ECL1E (Homo sapiens, UniProt O95838, R242E).
T1 sequence (O95838 1-553 R242E): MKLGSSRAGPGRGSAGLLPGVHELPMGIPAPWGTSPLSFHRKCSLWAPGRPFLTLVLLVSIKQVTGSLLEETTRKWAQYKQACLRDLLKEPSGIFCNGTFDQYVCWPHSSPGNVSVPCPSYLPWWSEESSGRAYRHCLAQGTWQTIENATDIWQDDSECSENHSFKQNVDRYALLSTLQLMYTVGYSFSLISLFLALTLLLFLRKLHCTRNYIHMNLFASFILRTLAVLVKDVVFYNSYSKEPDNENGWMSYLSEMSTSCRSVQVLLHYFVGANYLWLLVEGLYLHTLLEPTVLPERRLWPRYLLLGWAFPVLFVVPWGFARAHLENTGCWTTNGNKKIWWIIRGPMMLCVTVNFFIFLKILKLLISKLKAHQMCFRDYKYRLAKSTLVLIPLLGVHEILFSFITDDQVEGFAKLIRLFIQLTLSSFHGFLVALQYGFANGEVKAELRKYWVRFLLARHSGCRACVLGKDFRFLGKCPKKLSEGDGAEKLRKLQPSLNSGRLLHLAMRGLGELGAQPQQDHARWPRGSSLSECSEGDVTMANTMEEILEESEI
Briefly: radioligand competition binding, R242^ECL1E. Also noted: WT (1–553); expressed in transfected cells. As to conditions: COS-7, R242^ECL1E; [^125I]GLP-2(1–33, M10Y) 10–15 pM, 4 h, 4 °C; n ≥ 3 in duplicate. How it is done: (§1) A stepwise oxidation reaction was performed by addition of 6 aliquots of 5 µL ChloramineT (30 µL/mL) with a 1-min interval during constant stirring. The reaction was terminated by the addition of 400 µL phase A (0.1% trifluoracetic acid) before being fractionated into 1 mL volume by reverse-phase high-performance liquid chromatography (RP-HPLC, Waters 600 SimiPrep system) on a C18 column. The iodinated protein was […] by increasing concentrations of phase B (Acetonitrile + 0.1% TFA) and tested for competitive binding ability.
(§2) One day before transfection, the COS-7 cells were seeded in 75 cm^2 culture flasks (3 million cells/flask) in DMEM, containing 3.9 g/L NaHCO3 and supplemented with 10% FBS, 1% L-glutamine, 180 units/mL penicillin and 45 µg/mL streptomycin. After an overnight culture at 37 °C, 10% CO2 and 95% air humidity, the cells were transiently transfected with different GLP-2R constructs or pcDNA3.1 vector as previously described.[52] Following 24-h incubation, the cells were transferred to Costa® microtiter plates (150,000 cells/well, PerkinElmer) to achieve a 5%–10% specific binding. […] The cells were then washed twice in binding buffer (4 °C), lysed and counted for radioactivity using a Wallac Gamma Counter (PerkinElmer).
(In general: Loss of bound radioactivity is the signal in a displacement assay; it reports binding, not function.)

Another test concerns the target T2, GLP-2R K414^7.35A (Homo sapiens, UniProt O95838, K414A).
T2 sequence (O95838 1-553 K414A): T1 sequence (O95838 1-553 R242E) with E242R, K414A
Nature of the test: radioligand competition binding, K414^7.35A. On the set-up: WT (1–553); expressed in transfected cells; host or cells: COS-7. As to conditions: COS-7, K414^7.35 A; [^125I]GLP-2(1–33, M10Y) 10–15 pM, 4 h, 4 °C; mean ± SEM, n ≥ 3 in duplicate. How it is done: as §1, §2

The target of another test is T3, GLP-2R R242^ECL1A (Homo sapiens, UniProt O95838, R242A).
T3 sequence (O95838 1-553 R242A): T1 sequence (O95838 1-553 R242E) with E242A
Nature of the test: radioligand competition binding, R242^ECL1A. On the set-up: WT (1–553); expressed in transfected cells. As to conditions: COS-7, R242^ECL1A; [^125I]GLP-2(1–33, M10Y) 10–15 pM, 4 h, 4 °C; mean ± SEM, n ≥ 3 in duplicate. Here is the method:
as §1, §2

Where a chain is given by its changes, count along the chain named.

For `CC[C@H](C)[C@H](NC(=O)[C@H](Cc1ccccc1)NC(=O)[C@H](CC(=O)O)NC(=O)[C@H](CCCNC(=N)N)NC(=O)[C@H](C)NC(=O)[C@H](C)NC(=O)[C@H](CC(C)C)NC(=O)[C@H](CC(N)=O)NC(=O)[C@H](CC(=O)O)NC(=O)[C@H](CC(C)C)NC(=O)[C@@H](NC(=O)[C@@H](NC(=O)[C@H](CC(N)=O)NC(=O)[C@H](CCSC)NC(=O)[C@H](CCC(=O)O)NC(=O)[C@H](CC(=O)O)NC(=O)[C@H](CO)NC(=O)[C@H](Cc1ccccc1)NC(=O)[C@H](CO)NC(=O)CNC(=O)[C@H](CC(=O)O)NC(=O)[C@H](C)NC(=O)[C@@H](N)Cc1c[nH]cn1)[C@@H](C)O)[C@@H](C)CC)C(=O)N[C@@H](CC(N)=O)C(=O)N[C@@H](Cc1c[nH]c2ccccc12)C(=O)N[C@@H](CC(C)C)C(=O)N[C@H](C(=O)N[C@@H](CCC(N)=O)C(=O)N[C@H](C(=O)N[C@@H](CCCCN)C(=O)N[C@H](C(=O)N[C@H](C(=O)N[C@@H](CC(=O)O)C(=O)O)[C@@H](C)O)[C@@H](C)CC)[C@@H](C)O)[C@@H](C)CC` [Human GLP-2 (1–33)], the “% Binding of WT” value at GLP-2R R242^ECL1E was “N.B”; on GLP-2R K414^7.35A, 15.2 ± 1.0 %; at GLP-2R R242^ECL1A it was 4.2 ± 0.6 %.

Regarding `CC[C@H](C)[C@H](NC(=O)[C@H](Cc1ccccc1)NC(=O)[C@H](CC(=O)O)NC(=O)[C@H](CCCNC(=N)N)NC(=O)[C@H](C)NC(=O)[C@H](C)NC(=O)[C@H](CC(C)C)NC(=O)[C@H](CC(N)=O)NC(=O)[C@H](CC(=O)O)NC(=O)[C@H](CC(C)C)NC(=O)[C@@H](NC(=O)[C@@H](NC(=O)[C@H](CC(N)=O)NC(=O)[C@H](CCSC)NC(=O)[C@H](CCC(=O)O)NC(=O)[C@H](CC(=O)O)NC(=O)[C@H](CO)NC(=O)[C@H](Cc1ccccc1)NC(=O)[C@H](CO)NC(=O)CNC(=O)[C@H](CC(=O)O)NC(=O)CNC(=O)[C@@H](N)Cc1c[nH]cn1)[C@@H](C)O)[C@@H](C)CC)C(=O)N[C@@H](CC(N)=O)C(=O)N[C@@H](Cc1c[nH]c2ccccc12)C(=O)N[C@@H](CC(C)C)C(=O)N[C@H](C(=O)N[C@@H](CCC(N)=O)C(=O)N[C@H](C(=O)N[C@@H](CCCCN)C(=O)N[C@H](C(=O)N[C@H](C(=O)N[C@@H](CC(=O)O)C(=O)O)[C@@H](C)O)[C@@H](C)CC)[C@@H](C)O)[C@@H](C)CC` [Teduglutide], the “% Binding of WT” value is “N.B” on GLP-2R R242^ECL1E, 13.9 ± 0.8 % at GLP-2R K414^7.35A and 5.1 ± 1.5 % at GLP-2R R242^ECL1A.
